Assay results reported in ChEMBL document CHEMBL1201862, “PubChem BioAssay data set” (2004).
Calls of active or inactive are those of the source.

Columns and labels:
NADPH oxidase 1 = molecular target: T1, NADPH oxidase 1 (Homo sapiens, UniProt Q9Y5S8); format: functional, cell-based;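 note: Cell-based assay with luminescence read-out, IC50 derived from inhibitor dose-response curves; intracellular ROS from endogenous NOX1 in intact HT29 colon cancer cells; potency of inhibitors that lower the ROS luminescence signal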
T1 sequence (Q9Y5S8 whole entry): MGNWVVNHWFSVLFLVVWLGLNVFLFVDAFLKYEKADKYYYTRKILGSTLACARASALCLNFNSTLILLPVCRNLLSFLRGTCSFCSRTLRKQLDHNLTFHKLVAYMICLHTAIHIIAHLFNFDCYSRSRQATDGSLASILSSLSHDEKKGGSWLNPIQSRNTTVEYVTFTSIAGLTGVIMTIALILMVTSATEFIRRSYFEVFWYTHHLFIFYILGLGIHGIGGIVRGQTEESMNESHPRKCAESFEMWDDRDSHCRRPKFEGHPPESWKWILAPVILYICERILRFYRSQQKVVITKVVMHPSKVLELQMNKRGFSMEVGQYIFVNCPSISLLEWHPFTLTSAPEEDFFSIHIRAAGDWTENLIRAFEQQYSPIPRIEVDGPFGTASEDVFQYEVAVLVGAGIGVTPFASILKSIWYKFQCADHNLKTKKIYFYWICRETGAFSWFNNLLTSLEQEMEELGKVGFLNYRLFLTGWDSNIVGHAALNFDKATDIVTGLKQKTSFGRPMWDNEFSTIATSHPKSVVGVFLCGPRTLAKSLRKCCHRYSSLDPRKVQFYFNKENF

[1] = NIH3T3 cell viability loss – ATP luminescence, mouse fibroblasts, counter-screen, dose response (AID 2010); format: functional, cell-based;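 note: cells exposed to compound for about 90 hours before reading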
[2] = Trypanosoma cruzi growth suppression in host cells – NIH3T3 host cells, beta-gal luminescence, confirmation (AID 2044); format: functional, cell-based;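 note: intracellular parasites grown in NIH/3T3 mouse fibroblasts as host cells; luminescent beta-galactosidase reporter signal from transgenic T. cruzi replicating inside host cells; inhibitors lower the luminescence signal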
[3] = molecular target: Glyceraldehyde-3-phosphate dehydrogenase (Homo sapiens, UniProt P04406)
Glyceraldehyde-3-phosphate dehydrogenase, sequence (P04406 whole entry): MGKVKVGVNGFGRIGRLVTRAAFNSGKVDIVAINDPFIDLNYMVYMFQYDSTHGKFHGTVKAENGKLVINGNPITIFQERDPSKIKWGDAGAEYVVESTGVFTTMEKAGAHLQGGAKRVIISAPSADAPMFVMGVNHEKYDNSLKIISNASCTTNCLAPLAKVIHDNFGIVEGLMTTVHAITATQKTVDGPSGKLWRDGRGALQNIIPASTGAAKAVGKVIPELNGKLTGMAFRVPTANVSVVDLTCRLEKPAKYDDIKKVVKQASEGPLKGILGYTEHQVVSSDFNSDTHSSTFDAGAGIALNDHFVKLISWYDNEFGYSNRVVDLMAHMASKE

[4] = molecular target: T2, Alkaline phosphatase, tissue-nonspecific isozyme (Homo sapiens, UniProt P05186); test: potency against alkaline phosphatase TNAP – biochemical, luminescent, dose response, SAR follow-up (AID 1056)
T2 sequence (P05186 whole entry): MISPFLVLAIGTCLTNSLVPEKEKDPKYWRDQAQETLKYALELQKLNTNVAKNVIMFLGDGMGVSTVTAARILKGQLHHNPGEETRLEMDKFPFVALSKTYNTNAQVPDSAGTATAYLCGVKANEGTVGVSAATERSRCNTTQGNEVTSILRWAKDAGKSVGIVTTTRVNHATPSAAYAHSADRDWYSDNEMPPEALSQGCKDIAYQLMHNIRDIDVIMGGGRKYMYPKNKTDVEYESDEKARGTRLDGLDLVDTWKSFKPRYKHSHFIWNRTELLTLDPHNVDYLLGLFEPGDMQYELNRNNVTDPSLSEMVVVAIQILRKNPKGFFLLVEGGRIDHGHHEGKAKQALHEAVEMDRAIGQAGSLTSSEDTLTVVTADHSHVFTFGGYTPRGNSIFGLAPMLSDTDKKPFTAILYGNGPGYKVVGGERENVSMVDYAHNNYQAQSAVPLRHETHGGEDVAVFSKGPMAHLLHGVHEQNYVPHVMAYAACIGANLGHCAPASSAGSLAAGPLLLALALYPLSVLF

[5] = viability loss in THP-1 monocytes – THP-1 cells, cytotoxicity control for Vif-APOBEC3G degradation inhibitor project, dose response (AID 1117359); format: functional; conditions: THP-1
[6] = HEK-293T cell viability reduction – luminescence, B-cell screen hits, cytotoxicity control for BCR NF-kB inhibitor project, dose response (AID 489021); format: functional, cell-based;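 note: HEK-293T cells carrying an NF-kB luciferase reporter; cells exposed to compound for about 14 hours before viability readout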
[7] = molecular target: DNA dC->dU-editing enzyme APOBEC-3G (Homo sapiens, UniProt Q9HC16); test: Dose Response confirmation of small molecule APOBEC3G DNA Deaminase Inhibitors via a fluorescence-based single-stranded DNA deaminase assay. [Related pubchem assays (depositor defined):AID493012, AID493028]; format: functional
DNA dC->dU-editing enzyme APOBEC-3G, sequence (Q9HC16 whole entry): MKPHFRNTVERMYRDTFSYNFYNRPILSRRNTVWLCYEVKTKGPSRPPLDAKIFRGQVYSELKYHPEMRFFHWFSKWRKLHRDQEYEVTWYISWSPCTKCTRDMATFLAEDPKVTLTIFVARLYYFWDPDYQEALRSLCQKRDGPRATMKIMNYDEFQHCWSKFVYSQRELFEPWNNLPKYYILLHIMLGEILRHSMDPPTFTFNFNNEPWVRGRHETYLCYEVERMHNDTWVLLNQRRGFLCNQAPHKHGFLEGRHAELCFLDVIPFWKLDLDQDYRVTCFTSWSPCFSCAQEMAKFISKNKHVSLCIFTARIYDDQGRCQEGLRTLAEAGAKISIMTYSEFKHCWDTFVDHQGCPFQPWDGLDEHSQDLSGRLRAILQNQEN

[8] = viability loss of HPDE-C7K cells – cell-based, fluorescence, HTS, primary screen (AID 431); format: functional; conditions: Homo sapiens
[9] = HPDE-C7 pancreatic duct cell viability loss – fluorescence, HTS (AID 430); format: functional, cell-based; conditions: Homo sapiens
[10] = reduced cellular PGC1a acetyl-lysine signal – cell-based, cherry-picked samples, dose response (AID 720514); format: functional;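 note: potency may reflect raised or lowered acetylation signal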
[11] = viability loss in HeLa cells – cytotoxicity control for MgcRacGAP inhibitor project, dose response (AID 624300); format: functional
[12] = molecular target: T3, Microphthalmia-associated transcription factor (Homo sapiens, UniProt O75030); test: reducers of TRPM1 reporter luminescence, concentration series – cell-based, SK-MEL-5, cherry-picked, set 3, MITF inhibitor project, dose response (AID 493073); format: functional;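 note: SK-MEL-5 melanoma cells with luciferase driven by the MITF target TRPM1 promoter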
T3 sequence (O75030 whole entry): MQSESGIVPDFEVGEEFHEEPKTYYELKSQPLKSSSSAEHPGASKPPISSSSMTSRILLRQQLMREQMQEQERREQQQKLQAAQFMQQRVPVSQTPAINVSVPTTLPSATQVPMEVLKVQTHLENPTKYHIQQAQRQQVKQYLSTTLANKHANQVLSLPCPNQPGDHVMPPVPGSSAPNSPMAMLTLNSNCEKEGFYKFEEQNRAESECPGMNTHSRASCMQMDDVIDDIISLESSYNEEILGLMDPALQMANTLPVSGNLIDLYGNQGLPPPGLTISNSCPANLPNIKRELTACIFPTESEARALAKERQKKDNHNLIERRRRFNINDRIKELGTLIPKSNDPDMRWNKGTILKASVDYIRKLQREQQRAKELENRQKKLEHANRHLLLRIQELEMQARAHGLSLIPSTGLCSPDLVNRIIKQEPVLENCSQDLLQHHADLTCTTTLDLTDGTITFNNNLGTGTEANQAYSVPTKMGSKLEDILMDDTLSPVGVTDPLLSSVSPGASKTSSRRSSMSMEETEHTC

[13] = molecular target: T4, Rac GTPase-activating protein 1 (Homo sapiens, UniProt Q9H0H5); test: blockers of MgcRacGAP-driven Rac1 GTP hydrolysis – biochemical, ADP Hunter fluorescence, primary and confirmatory, confirmation (AID 624330); format: functional
T4 sequence (Q9H0H5 whole entry): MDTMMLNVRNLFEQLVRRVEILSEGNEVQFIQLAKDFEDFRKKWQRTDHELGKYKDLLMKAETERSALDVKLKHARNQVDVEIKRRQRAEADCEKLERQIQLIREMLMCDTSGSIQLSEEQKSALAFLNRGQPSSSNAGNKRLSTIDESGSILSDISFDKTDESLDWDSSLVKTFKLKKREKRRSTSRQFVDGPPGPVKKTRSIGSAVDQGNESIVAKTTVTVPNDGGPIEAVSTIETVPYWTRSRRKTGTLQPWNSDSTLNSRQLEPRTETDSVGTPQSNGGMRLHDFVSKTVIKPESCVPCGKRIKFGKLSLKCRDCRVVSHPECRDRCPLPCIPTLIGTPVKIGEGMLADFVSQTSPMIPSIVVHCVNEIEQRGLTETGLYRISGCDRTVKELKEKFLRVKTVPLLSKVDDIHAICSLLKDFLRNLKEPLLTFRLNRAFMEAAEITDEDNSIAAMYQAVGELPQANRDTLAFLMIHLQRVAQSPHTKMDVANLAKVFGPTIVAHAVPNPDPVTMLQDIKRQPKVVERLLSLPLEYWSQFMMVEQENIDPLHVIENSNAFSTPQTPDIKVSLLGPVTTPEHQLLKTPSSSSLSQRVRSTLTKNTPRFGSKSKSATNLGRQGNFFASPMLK

Nonstructural protein 1 = Nonstructural protein 1 (Influenza A virus, UniProt Q194T2); format: functional, Influenza A virus (A/California/07/2009(H1N1))
Nonstructural protein 1, sequence (Q194T2 whole entry): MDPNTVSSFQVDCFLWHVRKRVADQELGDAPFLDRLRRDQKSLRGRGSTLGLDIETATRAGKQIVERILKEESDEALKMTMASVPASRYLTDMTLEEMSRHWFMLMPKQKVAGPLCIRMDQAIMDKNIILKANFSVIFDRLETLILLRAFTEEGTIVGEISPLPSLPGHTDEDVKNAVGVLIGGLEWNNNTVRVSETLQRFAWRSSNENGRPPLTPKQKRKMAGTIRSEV

[14] = P. falciparum Dd2 growth inhibitors, dose response, SYBR Green, cherry-picked samples (AID 1159567); format: functional, cell-based
[15] = toxicity to human hepatoma HepG2 cells – cell-based, cherry-picked samples, cytotoxicity control, dose response (AID 1159577); format: functional
[16] = toxicity to human HepG2 hepatoma cells – cell-based, plate reader, dry powder samples, cytotoxicity control, dose response (AID 1159569); format: functional;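 note: inhibitor potency with signal falling toward the positive control level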
[17] = growth inhibition of yeast DHODH-expressing 3D7 parasites – SYBR Green, dry powder samples, dose response (AID 1159570); format: functional, cell-based;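 note: parasite growth measured after 72 hours of compound exposure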
[18] = Dd2 malaria parasite growth inhibition potency – SYBR Green, dry powder samples, dose response (AID 1159566); format: functional, cell-based;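 note: potency for growth inhibition with lower SYBR green DNA signal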
[19] = growth inhibition of PfATP4-mutant resistant parasites – NITD609-resistant line, SYBR Green, dry powder, dose response (AID 1159571); format: functional, cell-based;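 note: parasites synchronized at ring stage by sorbitol before testing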

Compound: O=[N+]([O-])c1cccc(/C=N/Nc2c(Cl)cncc2Cl)c1
- IC50 (NADPH oxidase 1): > 17 µM (not active)

Compound: O=C(O)c1nc(Cl)c(Cl)c(N/N=C/c2ccc(N3CCOCC3)c([N+](=O)[O-])c2)c1Cl
- IC50 (NADPH oxidase 1): > 17 µM (not active)

Compound: COc1ccc(-c2nc(CN3CCN(Cc4cccc(Cl)c4)CC3)c(C)o2)cc1
- EC50 (cells): 0.377 µM (active)
- EC50 [1]: > 60 µM (not active)
- EC50 [2]: < 0.1 µM (active)

Compound: COc1ccc(OC)c(S(=O)(=O)Nc2ccc(O)c3ccccc23)c1
- IC50 [3]: > 100 µM (not active)
- IC50 [4]: > 100 µM (inactive)
- CC50 [5]: 12.8 µM (active)

Compound: CCOc1ccc(-c2cc(CCCC(=O)NCc3ccc(C)cc3)no2)cc1
- IC50 [6]: > 80 µM (inactive)

Compound: O=C(Oc1cccc2ccccc12)c1sc2ccccc2c1Cl
- IC50 (NADPH oxidase 1): > 17 µM (not active)

Compound: O=C(Oc1ccccc1F)c1sc2ccccc2c1Cl
- IC50 (NADPH oxidase 1): > 17 µM (not active)

Compound: COc1ccc(O)c(C(=O)C2c3ccccc3C(=O)N2c2ccc(C)cc2)c1 (configuration not stated)
- IC50 [7]: 37.4 µM (active)
- CC50 [5]: > 40 µM (active)

Compound: CCc1c(C)nc2cc(-c3cc(OC)cc(OC)c3)nn2c1N1CCCC1
- EC50 [8]: 13 µM (active)
- EC50 [9]: 10.5 µM (active)

Compound: COc1ccc(CN2CCCC(CNC(=O)c3ccc(F)cc3)C2)c(C)c1C (configuration not stated)
- EC50 (cells): 0.09 µM (active)
- EC50 [1]: > 30 µM (not active)
- EC50 [2]: < 0.1 µM (active)

Compound: O=C1/C(=C/c2ccccc2[N+](=O)[O-])COc2ccccc21
- AC50 [10]: 4.77 µM (active)
- CC50 [11]: 100 µM (active)
- AC50 [12]: 9.8 µM (active)
- IC50 [13]: 101 µM (active)

Compound: Cc1cc(N(C)C)ccc1N=Nc1ccc(N)cc1
- IC50 [6]: > 80 µM (inactive)
- IC50 [13]: 29.3 µM (active)
- IC50 (Nonstructural protein 1): 21.4 µM (active)

Compound: Cc1ccc([C@H]2C(C(=O)O)=CC[C@@H](c3cccc(Cl)c3)N2S(=O)(=O)c2ccc(C)cc2)cc1
- CC50 [5]: > 40 µM (active)

Compound: N#Cc1ccc(-c2ccc([C@@H]3[C@@H]4CN(S(=O)(=O)c5ccc(F)cc5)C[C@H]3N4)cc2)cc1
- AC50 [10]: 1.57 µM (active)
- AC50 [14]: 4.69 µM (active)

Compound: N#C[C@H]1[C@H](c2ccc(-c3ccccc3)cc2)[C@H](CO)N1C(=O)Cc1ccncc1
- AC50 [14]: 3.05 µM (active)
- AC50 [15]: > 36 µM (inactive)

Compound: COc1ccccc1C#Cc1ccc([C@H]2[C@@H](C#N)N(C(=O)C3CCC3)[C@H]2CO)cc1
- AC50 [16]: 37.3 µM (active)
- AC50 [17]: 1.16 µM (active)
- AC50 [14]: 1.36 µM (active)
- AC50 [18]: 0.51 µM (active)
- AC50 [15]: > 42 µM (inactive)
- AC50 [19]: 0.795 µM (active)

Compound: CO[C@@H]1CN(C)C(=O)c2cc(NC(=O)c3ccc(-c4ccccc4)cc3)ccc2OC[C@@H](C)NC[C@@H]1C
- AC50 [14]: 7.25 µM (active)
- AC50 [15]: 14.2 µM (active)

Compound: COc1ccc2c3c(n(C)c2c1)[C@@H](CO)NCC31CCN(Cc2ccccc2Cl)CC1
- AC50 [14]: 2.44 µM (active)
- AC50 [15]: 18.3 µM (active)

Compound: COc1ccc(C(=O)CC(=O)O)c2c1C=CC(C)(C)O2 [URSINOIC ACID]
- EC50 [8]: > 20 µM (not active)
- EC50 [9]: > 20 µM (not active)
